pIC50: −log10 of the molar value.
Experiments:
Assay type in all cases: functional
[1] = biological target: T1, Metabotropic glutamate receptor 1 (Rattus norvegicus, UniProt P23385); assay: Antagonistic activity against Metabotropic glutamate receptor 1 was determined at 1 mM; NE = No significant effect observed
[2] = biological target: T2, Metabotropic glutamate receptor 5 (Rattus norvegicus, UniProt P31424); assay: Antagonistic activity against Metabotropic glutamate receptor 5 was determined at 1 mM; NE = No significant effect observed
T2 sequence (P31424 whole entry): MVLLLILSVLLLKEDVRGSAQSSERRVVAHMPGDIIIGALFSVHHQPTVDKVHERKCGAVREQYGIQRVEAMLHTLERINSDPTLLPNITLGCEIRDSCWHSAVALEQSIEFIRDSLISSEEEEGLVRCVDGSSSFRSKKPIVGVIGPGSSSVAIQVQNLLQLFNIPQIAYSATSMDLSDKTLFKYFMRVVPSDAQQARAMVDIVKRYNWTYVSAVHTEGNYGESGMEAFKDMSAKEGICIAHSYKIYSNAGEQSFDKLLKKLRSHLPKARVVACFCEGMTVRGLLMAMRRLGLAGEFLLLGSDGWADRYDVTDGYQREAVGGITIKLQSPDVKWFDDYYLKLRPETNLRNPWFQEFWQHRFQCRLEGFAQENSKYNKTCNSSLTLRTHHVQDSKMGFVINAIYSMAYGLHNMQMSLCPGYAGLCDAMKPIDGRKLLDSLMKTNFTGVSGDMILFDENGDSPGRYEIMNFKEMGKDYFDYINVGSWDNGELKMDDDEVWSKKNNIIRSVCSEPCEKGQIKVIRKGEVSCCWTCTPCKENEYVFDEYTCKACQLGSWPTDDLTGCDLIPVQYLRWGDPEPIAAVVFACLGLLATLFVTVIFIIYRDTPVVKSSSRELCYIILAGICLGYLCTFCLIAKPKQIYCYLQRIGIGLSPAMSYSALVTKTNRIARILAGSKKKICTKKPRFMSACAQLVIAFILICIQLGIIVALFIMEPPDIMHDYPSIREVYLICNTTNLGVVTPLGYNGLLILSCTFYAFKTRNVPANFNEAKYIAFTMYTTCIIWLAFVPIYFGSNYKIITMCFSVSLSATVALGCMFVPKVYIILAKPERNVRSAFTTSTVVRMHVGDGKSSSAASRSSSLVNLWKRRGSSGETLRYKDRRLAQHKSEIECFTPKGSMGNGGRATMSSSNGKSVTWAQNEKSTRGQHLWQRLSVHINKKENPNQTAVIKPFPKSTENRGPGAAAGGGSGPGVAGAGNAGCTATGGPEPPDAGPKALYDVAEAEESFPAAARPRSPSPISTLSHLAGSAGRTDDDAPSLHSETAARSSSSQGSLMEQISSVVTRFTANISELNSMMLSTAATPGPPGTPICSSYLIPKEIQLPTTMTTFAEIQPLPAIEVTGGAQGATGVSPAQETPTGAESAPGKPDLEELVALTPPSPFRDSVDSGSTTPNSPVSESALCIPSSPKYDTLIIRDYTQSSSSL

[3] = biological target: Metabotropic glutamate receptor 2 (Rattus norvegicus, UniProt P31421); assay: Antagonistic activity against Metabotropic glutamate receptor 2 was determined
Sequence of Metabotropic glutamate receptor 2 (P31421 whole entry): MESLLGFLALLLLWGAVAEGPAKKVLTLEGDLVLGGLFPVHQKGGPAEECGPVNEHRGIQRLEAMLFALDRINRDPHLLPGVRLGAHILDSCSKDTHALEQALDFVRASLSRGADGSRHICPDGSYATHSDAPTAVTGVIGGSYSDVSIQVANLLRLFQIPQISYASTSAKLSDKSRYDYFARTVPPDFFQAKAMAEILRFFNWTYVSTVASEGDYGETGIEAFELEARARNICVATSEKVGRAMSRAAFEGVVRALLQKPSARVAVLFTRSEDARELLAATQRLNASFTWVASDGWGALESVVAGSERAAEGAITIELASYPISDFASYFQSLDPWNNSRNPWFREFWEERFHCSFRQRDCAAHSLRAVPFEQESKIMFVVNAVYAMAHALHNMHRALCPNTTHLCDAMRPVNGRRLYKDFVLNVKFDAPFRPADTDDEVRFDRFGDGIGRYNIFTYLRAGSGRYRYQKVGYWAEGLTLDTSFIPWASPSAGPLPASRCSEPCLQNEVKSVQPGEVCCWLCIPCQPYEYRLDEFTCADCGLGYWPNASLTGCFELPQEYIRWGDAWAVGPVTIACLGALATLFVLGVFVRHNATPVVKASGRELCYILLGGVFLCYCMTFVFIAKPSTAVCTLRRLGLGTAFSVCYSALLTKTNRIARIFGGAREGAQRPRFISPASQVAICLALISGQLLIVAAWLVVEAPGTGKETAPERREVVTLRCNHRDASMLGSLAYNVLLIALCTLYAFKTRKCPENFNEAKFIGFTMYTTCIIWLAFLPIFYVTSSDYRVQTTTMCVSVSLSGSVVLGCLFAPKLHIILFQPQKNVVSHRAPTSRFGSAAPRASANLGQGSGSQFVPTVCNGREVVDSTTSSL

[4] = biological target: Metabotropic glutamate receptor 6 (Rattus norvegicus, UniProt P35349); assay: Antagonistic activity against Metabotropic glutamate receptor 6 was determined at 1 mM; NE = No significant effect observed
Sequence of Metabotropic glutamate receptor 6 (P35349 whole entry): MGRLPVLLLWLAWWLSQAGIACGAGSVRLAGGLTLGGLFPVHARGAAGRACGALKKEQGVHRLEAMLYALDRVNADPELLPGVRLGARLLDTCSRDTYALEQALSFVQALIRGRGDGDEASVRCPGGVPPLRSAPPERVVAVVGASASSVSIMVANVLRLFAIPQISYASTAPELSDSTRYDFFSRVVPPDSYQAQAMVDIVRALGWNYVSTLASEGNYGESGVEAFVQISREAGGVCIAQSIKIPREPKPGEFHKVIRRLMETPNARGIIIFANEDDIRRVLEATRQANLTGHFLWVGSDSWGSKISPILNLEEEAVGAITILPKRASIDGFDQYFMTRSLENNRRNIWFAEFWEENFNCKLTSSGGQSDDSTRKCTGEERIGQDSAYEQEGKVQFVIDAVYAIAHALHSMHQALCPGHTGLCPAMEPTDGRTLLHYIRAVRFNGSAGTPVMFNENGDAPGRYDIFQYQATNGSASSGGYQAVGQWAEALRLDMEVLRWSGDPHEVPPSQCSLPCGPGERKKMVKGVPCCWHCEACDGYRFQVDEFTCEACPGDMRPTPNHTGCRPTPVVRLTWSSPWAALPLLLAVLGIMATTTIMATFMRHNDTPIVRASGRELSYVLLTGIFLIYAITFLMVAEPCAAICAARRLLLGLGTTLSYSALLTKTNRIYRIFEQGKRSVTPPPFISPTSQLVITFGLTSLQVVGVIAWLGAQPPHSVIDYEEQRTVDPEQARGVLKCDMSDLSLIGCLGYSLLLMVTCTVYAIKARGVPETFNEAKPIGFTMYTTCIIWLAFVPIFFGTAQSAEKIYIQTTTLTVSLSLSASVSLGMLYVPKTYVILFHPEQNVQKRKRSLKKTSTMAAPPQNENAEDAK

[5] = biological target: T2, Metabotropic glutamate receptor 5; assay: Antagonistic activity against Metabotropic glutamate receptor 5 was determined
[6] = biological target: T1, Metabotropic glutamate receptor 1; assay: Antagonistic activity against Metabotropic glutamate receptor 1 was determined

T1 sequence (P23385 whole entry): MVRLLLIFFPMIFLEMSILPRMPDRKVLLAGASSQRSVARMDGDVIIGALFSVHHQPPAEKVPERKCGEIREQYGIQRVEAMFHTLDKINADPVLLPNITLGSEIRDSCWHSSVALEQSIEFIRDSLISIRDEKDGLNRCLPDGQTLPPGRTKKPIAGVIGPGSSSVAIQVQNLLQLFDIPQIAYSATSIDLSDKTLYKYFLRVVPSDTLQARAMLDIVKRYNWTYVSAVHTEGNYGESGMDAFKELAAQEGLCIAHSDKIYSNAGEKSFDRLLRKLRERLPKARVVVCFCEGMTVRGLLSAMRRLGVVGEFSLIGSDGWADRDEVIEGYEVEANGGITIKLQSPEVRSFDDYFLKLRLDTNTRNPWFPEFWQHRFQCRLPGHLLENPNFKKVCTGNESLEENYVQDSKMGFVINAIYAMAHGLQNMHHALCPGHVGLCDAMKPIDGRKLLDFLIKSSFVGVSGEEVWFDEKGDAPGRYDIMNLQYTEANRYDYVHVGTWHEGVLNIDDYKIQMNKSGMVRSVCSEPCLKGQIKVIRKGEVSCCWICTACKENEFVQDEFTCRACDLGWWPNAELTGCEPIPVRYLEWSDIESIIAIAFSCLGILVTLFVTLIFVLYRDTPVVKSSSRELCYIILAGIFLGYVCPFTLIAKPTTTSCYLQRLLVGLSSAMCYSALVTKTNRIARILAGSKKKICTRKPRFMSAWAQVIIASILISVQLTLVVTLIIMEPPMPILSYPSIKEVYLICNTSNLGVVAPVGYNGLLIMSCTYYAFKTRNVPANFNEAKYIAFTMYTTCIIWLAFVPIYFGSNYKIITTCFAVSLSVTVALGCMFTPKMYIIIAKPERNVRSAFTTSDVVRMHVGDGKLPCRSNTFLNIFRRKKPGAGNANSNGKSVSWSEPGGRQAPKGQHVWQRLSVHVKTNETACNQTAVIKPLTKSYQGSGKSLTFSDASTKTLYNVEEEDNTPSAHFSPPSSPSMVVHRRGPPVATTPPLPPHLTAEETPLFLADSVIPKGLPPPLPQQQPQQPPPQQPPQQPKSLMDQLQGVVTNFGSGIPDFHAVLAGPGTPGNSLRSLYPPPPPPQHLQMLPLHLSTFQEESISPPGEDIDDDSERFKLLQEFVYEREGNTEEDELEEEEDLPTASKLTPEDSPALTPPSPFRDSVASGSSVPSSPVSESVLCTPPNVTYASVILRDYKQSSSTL

NC1(C(=O)O)CCc2cc(P(=O)(O)O)ccc21 (stereo not drawn)
IC50 [1]: No effect | IC50 [2]: No effect | pIC50 [3]: 4.52 | IC50 [4]: No effect

CC1(C)CC(N)(C(=O)O)c2ccc(C(=O)O)cc2O1 (stereo not drawn)
pIC50 [3]: 4.37 | IC50 [4]: No effect | pIC50 [5]: 3.45 | pIC50 [6]: 4.03
